# Test results from BindingDB's records for doi:10.7270/Q2251GJ9 (The Scripps Research Institute Molecular Screening Center, 2007).
# Structures can show the parent of a compound that is named as a salt.
# Biological target: Sphingosine 1-phosphate receptor 1 (Homo sapiens, UniProt P21453)
# Test: direct activation of human S1P1 – cell-based, agonist mode, 60K MLSMR set, dose response (AID 468)
# [1] = inactive by the depositor's call
# Chain of Sphingosine 1-phosphate receptor 1 (P21453 whole entry): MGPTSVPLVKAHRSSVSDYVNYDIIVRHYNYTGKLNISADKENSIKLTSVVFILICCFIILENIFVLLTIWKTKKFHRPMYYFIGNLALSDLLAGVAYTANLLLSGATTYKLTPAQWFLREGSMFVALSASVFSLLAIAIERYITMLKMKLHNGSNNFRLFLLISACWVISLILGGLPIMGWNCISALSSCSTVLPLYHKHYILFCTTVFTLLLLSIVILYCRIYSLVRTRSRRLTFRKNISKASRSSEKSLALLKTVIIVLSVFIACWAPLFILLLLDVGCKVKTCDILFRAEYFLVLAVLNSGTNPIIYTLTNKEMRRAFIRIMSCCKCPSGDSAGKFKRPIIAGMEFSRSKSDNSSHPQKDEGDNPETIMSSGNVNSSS
EC50 [1] [µM],EC50 [µM],SMILES
11.4,,"CC1=CC(C)(C)Nc2ccc(OC(=O)c3cccnc3)cc21 [(2,2,4-trimethyl-1H-quinolin-6-yl) pyridine-3-carboxylate]"
,8.15,CCCOC(=O)c1ccc(OCC(O)Cn2c(C)nc3ccccc32)cc1 (stereo not drawn) [4-[2-hydroxy-3-(2-methyl-1-benzimidazolyl)propoxy]benzoic acid propyl ester]
,4.08,CCOc1ccc(C(=O)Nc2c(C(N)=O)oc3ccccc23)cc1 [3-[(4-ethoxybenzoyl)amino]-1-benzofuran-2-carboxamide]
14.1,,"Cc1nc2ncnn2c(N2CCN(c3cccc(C(F)(F)F)c3)CC2)c1C [5,6-Dimethyl-7-[4-(3-trifluoromethyl-phenyl)-piperazin-1-yl]-[1,2,4]triazolo[1,5-a]pyrimidine]"
,1.78,"Cn1c(C(=O)N2CCCc3ccccc32)cc2sccc21 [(3,4-Dihydro-2H-quinolin-1-yl)-(4-methyl-4H-thieno[3,2-b]pyrrol-5-yl)-methanone]"
,5.09,"O=C(CSc1nnc(Cn2nnc3ccccc32)o1)N(Cc1ccc(F)cc1)c1ccccc1 [2-(5-Benzotriazol-1-ylmethyl-[1,3,4]oxadiazol-2-ylsulfanyl)-N-(4-fluoro-benzyl)-N-phenyl-acetamide]"
,6.73,"CCOc1ccc(S(=O)(=O)n2cnc3cc(C)c(C)cc32)cc1 [1-(4-Ethoxy-benzenesulfonyl)-5,6-dimethyl-1H-benzoimidazole]"
,5.63,Cc1nn(Cc2ccc(Cl)c(Cl)c2)c(C)c1NC(=O)c1cc(-c2ccco2)on1 [MLS000087229]
46.8,,"CCSc1nc(N2CCOCC2)c2c(c1C#N)CCCC2 [3-(ethylthio)-1-(4-morpholinyl)-5,6,7,8-tetrahydroisoquinoline-4-carbonitrile]"
,> 95,CC(C)N1C(=O)CCC1C(=O)N1CCC(Cc2ccccc2)CC1 (stereo not drawn) [5-(4-benzylpiperidine-1-carbonyl)-1-isopropyl-2-pyrrolidone]
,11.8,CC(=O)Oc1ccc(-n2c(O)c3c(c2O)C2(C)C=CC3(C)O2)cc1 [MLS000107813]
,1.23,O=C(Nc1ccc(N2CCOCC2)c(Cl)c1)c1cccc(F)c1 [MLS000066209]
,4.66,"Cc1cc(C(=O)CSc2nnc(-c3cccs3)o2)c(C)n1-c1ccccc1 [1-(2,5-dimethyl-1-phenyl-3-pyrrolyl)-2-[(5-thiophen-2-yl-1,3,4-oxadiazol-2-yl)thio]ethanone]"
,5.08,"Cc1nnc2ccc(Oc3ccc(-c4ccccc4)cc3)nn12 [3-methyl-6-(4-phenylphenoxy)-[1,2,4]triazolo[4,3-b]pyridazine]"
,> 95,CC(C)(C)SCCNS(=O)(=O)c1ccccc1 [MLS000112230]
10.1,,Cc1csc(NC(=O)c2nc(-c3ccccc3)n(-c3ccccc3)n2)n1 [MLS000058347]
,4.74,O=C(Nc1cccc(C(F)(F)F)c1)C1CCCN1S(=O)(=O)c1cccc2cccnc12 (stereo not drawn) [1-(8-quinolinylsulfonyl)-N-[3-(trifluoromethyl)phenyl]-2-pyrrolidinecarboxamide]
22.4,,N#C/C(=C/c1ccc(N2CCCCCC2)o1)c1ccc(F)cc1 [MLS000051438]
,4.54,"Cc1oc2cc(O)cc(O)c2c(=O)c1-c1ccc2c(c1)OCCCO2 [3-(3,4-dihydro-2H-1,5-benzodioxepin-7-yl)-2-methyl-5,7-bis(oxidanyl)chromen-4-one]"

EC50 [1] [µM],EC50 [µM],SMILES
,4.37,CCOC(=O)c1c(C)[nH]c(C(=O)C(C)OC(=O)c2cccc(OCc3c(C)noc3C)c2)c1C (stereo not drawn) [MLS000054923]
,1.02,"O=C(CSc1nc2ccccc2o1)Nc1ccc(N2CCOCC2)c(Cl)c1 [2-(1,3-benzoxazol-2-ylsulfanyl)-N-(3-chloranyl-4-morpholin-4-yl-phenyl)ethanamide]"
,7.92,N#Cc1nc(-c2ccc(OCc3ccccc3)cc2)oc1NCc1cccnc1 [2-(4-benzoxyphenyl)-5-(3-pyridylmethylamino)oxazole-4-carbonitrile]
22.2,,"Cc1nc2sc(-c3ccccc3)cc2c(=O)n1-n1cccc1 [2-methyl-6-phenyl-3-(1-pyrrolyl)-4-thieno[2,3-d]pyrimidinone]"
,> 95,O=C(Oc1cccc(C(=O)N2CCOCC2)c1)c1ccc(Br)cc1 [(3-morpholin-4-ylcarbonylphenyl) 4-bromanylbenzoate]
,> 95,Cc1ccc(-c2n[nH]c(=S)n2C)cc1
,7.23,NC(=Nc1nc2c(c(=O)[nH]1)CCCC2)Nc1ccccc1 [MLS000078734]
,9.78,CCN(CC)c1ccc2cc(NC(=O)CCC(=O)O)c(=O)oc2c1 [4-[[7-(diethylamino)-2-keto-chromen-3-yl]amino]-4-keto-butyric acid]
,4.62,"Fc1ccccc1COc1ccc(C=Nn2cnnc2)cc1 [1-[4-[(2-fluorophenyl)methoxy]phenyl]-N-(1,2,4-triazol-4-yl)methanimine]"
,> 95,CCc1nnc(NC(=O)C2CCCCC2)s1 [MLS000104554]
,> 95,Cc1ccc2c(c1)N(CC(=O)Nc1ccc3c(c1)OCCO3)C(=O)CO2 [MLS000074457]
,6.13,"C=CCN1/C(=N/c2cccnc2)SCC1(O)c1ccc(C)cc1 (stereo not drawn) [(2E)-3-allyl-4-(4-methylphenyl)-2-(pyridin-3-ylimino)-1,3-thiazolidin-4-ol]"
12.7,,"CC1CCCC(C)N1C(=O)CN1CCN(c2nc(-c3ccc(F)cc3)cs2)CC1 (stereo not drawn) [1-(2,6-Dimethyl-piperidin-1-yl)-2-{4-[4-(4-fluoro-phenyl)-thiazol-2-yl]-piperazin-1-yl}-ethanone]"
34.4,,Cc1ccc(Cl)cc1N1CCN(C(=O)C2CCN(c3nnc(-n4cccc4)s3)CC2)CC1 [MLS000119702]
,13.4,"CCCCc1ccc(C2C(C#N)C(=N)SC(=N)C2C#N)s1 (stereo not drawn) [2,6-bis(azanyl)-4-(5-butylthiophen-2-yl)-4H-thiopyran-3,5-dicarbonitrile]"
17.6,,O=C(Nc1nc(-c2nc3ccccc3s2)cs1)c1ccc(S(=O)(=O)N2CCOCC2)cc1 [MLS000087900]
,9.07,"Oc1ccc(N2CCN(c3ncnc4sc5c(c34)CCC5)CC2)cc1 [4-[4-(7,8-dihydro-6H-cyclopenta[4,5]thieno[1,2-c]pyrimidin-1-yl)-1-piperazinyl]phenol]"
15.6,,"Cn1cccc1C(=O)OCc1cc(Cl)cc2c1OCOC2 [(6-chloranyl-4H-1,3-benzodioxin-8-yl)methyl 1-methylpyrrole-2-carboxylate]"
,0.996,"O=C(Nc1nc2c(s1)CCCC2)c1cc2n(n1)C(C(F)(F)F)CC(C1CC1)N2 (stereo not drawn) [5-Cyclopropyl-7-trifluoromethyl-4,5,6,7-tetrahydro-pyrazolo[1,5-a]pyrimidine-2-carboxylic acid (4,5,6,7-tetrahydro-benzothiazol-2-yl)-amide]"

EC50 [1] [µM],EC50 [µM],SMILES
,2.46,"Cc1cc(C(=O)CSc2nnc(-c3ccncc3)n2-c2ccccc2)c(C)n1C [2-[(4-phenyl-5-pyridin-4-yl-1,2,4-triazol-3-yl)sulfanyl]-1-(1,2,5-trimethylpyrrol-3-yl)ethanone]"
,1.87,"CCOc1ccc(-c2nc(-c3ccccc3C)no2)cc1 [3-(o-tolyl)-5-p-phenetyl-1,2,4-oxadiazole]"
,1.24,"c1csc(CCNc2ncnc3sc4c(c23)CCC4)c1 [7,8-dihydro-6H-cyclopenta[4,5]thieno[1,2-c]pyrimidin-1-yl-[2-(2-thienyl)ethyl]amine]"
,4.18,c1ccc(CN2CCN(c3ncnc4c3[nH]c3ccccc34)CC2)cc1 [MLS000078384]
13.9,,"Cc1nn(Cc2ccccc2)c(C)c1C(=O)OCC(=O)c1cc(C)n(C2CC2)c1C [1-benzyl-3,5-dimethyl-pyrazole-4-carboxylic acid [2-(1-cyclopropyl-2,5-dimethyl-pyrrol-3-yl)-2-keto-ethyl] ester]"
,9.86,O=C(Nc1ccc(C(F)(F)F)cc1)C1CCCN1S(=O)(=O)c1cccc2cccnc12 (stereo not drawn) [1-(8-quinolinylsulfonyl)-N-[4-(trifluoromethyl)phenyl]-2-pyrrolidinecarboxamide]
,0.415,"Cc1nn(-c2nc3ccccc3s2)c(N)c1-c1ccccc1 [1-(1,3-benzothiazol-2-yl)-3-methyl-4-phenyl-1H-pyrazol-5-amine]"
,10.5,"O=C(CCN1CCc2ccccc2CC1)c1ccc2c(c1)OCCO2 [1-(2,3-dihydro-1,4-benzodioxin-6-yl)-3-(1,2,4,5-tetrahydro-3-benzazepin-3-yl)-1-propanone;hydrochloride]"
13.2,,"Cc1ccc2nc(NC(=O)CSc3nc4c(c(=O)n3C)SC(C)C4)sc2c1 (stereo not drawn) [2-[(3,6-dimethyl-4-oxidanylidene-6,7-dihydrothieno[3,2-d]pyrimidin-2-yl)sulfanyl]-N-(6-methyl-1,3-benzothiazol-2-yl)ethanamide]"
,3.73,"COc1cccc(N2CCN(c3ncnc4c3[nH]c3ccccc34)CC2C)c1 (stereo not drawn) [4-[4-(3-methoxyphenyl)-3-methyl-1-piperazinyl]-5H-pyrimido[5,4-b]indole]"
,9.9,COC(=O)c1ccc2c(=O)n(C3CCCCC3)c(SCC#N)nc2c1 [2-(cyanomethylthio)-3-cyclohexyl-4-keto-quinazoline-7-carboxylic acid methyl ester]
13.8,,Cc1nn(Cc2ccc(Cl)cc2)c(C)c1NC(=O)c1cc(-c2ccco2)on1 [MLS000087233]
,4.41,CC(C)OCCCNc1ncnc2c1[nH]c1ccc(F)cc12
,1.61,"Cc1ccc(C(C)C)c(OCc2nc(-c3nonc3N)no2)c1 [4-[5-[(5-methyl-2-propan-2-yl-phenoxy)methyl]-1,2,4-oxadiazol-3-yl]-1,2,5-oxadiazol-3-amine]"
41.8,,"Clc1ccc(CSc2nnc(-c3ccncc3)o2)c(Cl)c1 [2-[(2,4-dichlorobenzyl)thio]-5-(4-pyridyl)-1,3,4-oxadiazole]"
,5.6,c1ccc2c(c1)oc1c(NCc3ccc4c(c3)OCO4)ncnc12 [MLS000057790]
,9.9,Cc1ccc2[nH]c3c(NCc4ccco4)ncnc3c2c1 [MLS000040855]
,> 10,"COc1ccccc1-n1nnnc1SCc1cc2c(cc1Br)OCO2 [5-[(6-bromanyl-1,3-benzodioxol-5-yl)methylsulfanyl]-1-(2-methoxyphenyl)-1,2,3,4-tetrazole]"

SMILES,EC50 [1] [µM],EC50 [µM]
"O=C1C2CCCN2C(c2cccnc2)N1c1cccc(Cl)c1 (stereo not drawn) [2-(3-chlorophenyl)-3-(3-pyridinyl)-5,6,7,7a-tetrahydro-3H-pyrrolo[1,2-c]imidazol-1-one]",,> 95.1
"CC(=O)Nc1cc(OC(C)=O)c2nonc2c1OC(C)=O [Acetic acid 7-acetoxy-5-acetylamino-benzo[1,2,5]oxadiazol-4-yl ester]",,7.53
